Like-named read-outs stand apart in the source and are kept apart here.
Key:
[1] = metabolic stability assay using liver microsomes; assay type: in vitro ADME; settings: human liver microsomes, with NRS at 37° C.
Procedure: In addition, compounds of Formula I-VIII described above are also tested in the metabolic stability assay using liver microsomes, as provided below.
Buffer pH7.4: Prepare 1 (M) KH2PO4 and 1 (M) K2HPO4. Titrate 1(M) K2HPO4 with 1 (M) KH2PO4 to obtain pH 7.40. Dilute this buffer 10 fold in Water (30 ml buffer+270 ml of water) to obtain 100 mM phosphate buffer. Adjust pH to 7.40±0.02 using 5(N) HCl or 5(N) NaOH.
NADPH Regeneration System (NRS): Prepare a solution containing 13 mM NADP, 33 mM Glucose-6-phosphate, 33 mM MgCl2 and 4 U/ml Glucose-6-phosphate dehydrogenase in buffer.
Liver Microsome (LM) suspension: Thaw LM vial on ice, then mix 1.0 ml LM (20 mg/ml) with 19 ml buffer [final LM Conc: 1 mg/ml]
LM+NRS suspension: Mix 5.0 ml NRS with 20 ml LM suspension [final LM Conc: 0.8 mg/ml]
System suitability standard: a synthesized compound having Mol wt 686.2 used as System suitability standard. Dissolve this compound in ice-cold acetonitrile to obtain concentration of 0.1 μg/ml and store at 4° C.
Compound Stock: 10 mM in DMSO
Sub stock (100 μM): 4 μl of 10 mM Compound Stock+[…] Acetonitrile
Working plate (2 μM): 10 μl of 100 μM Sub stock+490 μl buffer
Incubate all plastic materials including tips at 37° C. overnight.
Incubate LM suspension and NRS at 37° C. for 15 min before use.
Add 40 μl buffer to the wells of blank plate.
Add 40 μl compound (from working plate) to 0, 5, 10, 20, 30 and 60 min plates.
Initiate reaction by adding 40 μl of LM+NRS suspension in each plate.
Terminate reaction by adding 240 μl ice-cold acetonitrile containing system suitability standard at designated time points. For T=0 add 240 μl ice-cold acetonitrile containing system suitability standard before LM+NRS addition.
Centrifuge (3500 rpm, 20 min and 15° C.) the plates.
Mix 110 μl supernatant with 110 μl water and quantitate amount of Compound in the solution using LC-MS/MS.
For Scaled CLint & Predicted CL use the relevant physiological parameters, as applicable.
Human LM: Corning, Cat #25117
Mouse LM: Xenotech, Cat #M1000
(2) Volumes mentioned in the protocol are representative values and may change depending on number of test compounds.
(3) It is assumed that the compounds are chemically stable in the assay system/buffer.
The metabolic stability assay described above can be performed using different test concentrations, LM Concentrations, or time points.
Certain compounds of this disclosure were tested in the microsomal stability assay provided above.

[2] = target: Granzyme B (human lymphocytes) (Homo sapiens (Human), UniProt P10144); assay: human Granzyme B biochemical assay
How it was run: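 Enzyme (10 nM working stock, assay buffer with 0.1% BSA) pre-incubated with compound for 30 min at 22 °C, then Ac-IETD-AFC (800 µM working stock) added for 60 min at 22 °C in the dark. Fluorescence read at Ex 400/Em 505 nm; 8-point 3.16-fold series (40 µM top working stock); IC50 from % inhibition versus standard-inhibitor and DMSO controls.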

[3] = Granzyme B (human lymphocytes) 5 nM, substrate Ac-IETD-AFC 200 μM, Cpd incubation with enzyme 30 mins, 22° C., read time 60 mins, read-out: IC50
[4] = Granzyme B IC50 as repeated in Table 7, read-out: IC50

Chain of Granzyme B (human lymphocytes) (P10144 21-247): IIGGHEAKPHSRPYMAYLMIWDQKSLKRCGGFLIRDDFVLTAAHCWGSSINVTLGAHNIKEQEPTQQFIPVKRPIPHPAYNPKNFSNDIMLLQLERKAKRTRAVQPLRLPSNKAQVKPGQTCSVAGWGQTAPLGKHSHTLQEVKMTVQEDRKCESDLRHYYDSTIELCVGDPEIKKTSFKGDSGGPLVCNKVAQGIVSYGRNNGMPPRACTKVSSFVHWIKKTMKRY

Row | IC50 [2, 3] [nM] | IC50 [2, 4] [nM] | SMILES | HLM % remaining @ 30 min [1] | IC50 [2] [nM] | IC50 ([2]; Granzyme B IC50 as repeated in Table 7) [nM]
1 | 1 to 300 | 1 to 300 | CC[C@H](C)[C@H](NC(C)=O)C(=O)N[C@H]1COc2cccc3c2N(C1=O)[C@H](C(=O)NCc1c[nH]nn1)C3 [Compound C097, (1S,8S)-8-((2S,3S)-2-Acetylamino-3-methyl-pentanoylamino)-9-oxo-1,2,8,9-tetrahydro-7H-6-oxa-9a-aza-benzo[cd]azulene-1-carboxylic acid (1H-[1,2,3]triazol-4-ylmethyl)-amide] | *** (the symbol “***” indicates a remaining percentage of 71-100%) |  | 
2 |  |  | CC[C@H](C)[C@H](NC(=O)CF)C(=O)N[C@H]1CCc2cccc3c2N(C1=O)[C@H](C(=O)NCc1c[nH]nn1)C3 [Compound C059, (2S,5S)-5-[(2S,3S)-2-(2-Fluoro-acetylamino)-3-methyl-pentanoylamino]-4-oxo-1,2,4,5,6,7-hexahydro-azepino[3,2,1-hi]indole-2-carboxylic acid (1H-[1,2,3]triazol-4-ylmethyl)-amide] | *** (the symbol “***” indicates a remaining percentage of 71-100%) | 1 to 300 | 1 to 300
3 | 1 to 300 | 1 to 300 | CC(C)[C@H](NC(=O)COCCF)C(=O)N[C@H]1CCc2cccc3c2N(C1=O)[C@H](C(=O)NCc1c[nH]nn1)C3 [Compound C056, (2S,5S)-5-{(S)-2-[2-(2-Fluoro-ethoxy)-acetylamino]-3-methyl-butyrylamino}-4-oxo-1,2,4,5,6,7-hexahydro-azepino[3,2,1-hi]indole-2-carboxylic acid (1H-[1,2,3]triazol-4-ylmethyl)-amide] | *** (the symbol “***” indicates a remaining percentage of 71-100%) |  | 
4 | 1 to 300 | 1 to 300 | CC[C@@H](C)[C@H](NC(=O)c1ccccc1)C(=O)N[C@H]1CCc2cccc3c2N(C1=O)[C@H](C(=O)NCc1c[nH]nn1)C3 [Compound C053, (2S,5S)-5-((2S,3R)-2-Benzoylamino-3-methyl-pentanoylamino)-4-oxo-1,2,4,5,6,7-hexahydro-azepino[3,2,1-hi]indole-2-carboxylic acid (1H-[1,2,3]triazol-4-ylmethyl)-amide] | ** (“**” indicates a remaining percentage of 31-70%) |  | 
